Assay results: PMC3948622, “Docking, Synthesis and Antiproliferative Activity of N-Acylhydrazone Derivatives Designed as Combretastatin A4 Analogues” (PLoS ONE, 2014)
≈ marks a conversion by molar mass, not a printed value.

Experiments:
[1] = Aqueous solubility assay by ultraviolet spectroscopy; type: physicochemical; settings: water (saturated aqueous solution), thermodynamic from solid, 2 hours at 37°C, read-out: Aq. Solubility
Description: Ultraviolet spectroscopy was performed using Femto spectrophotometer. The wavelength used in solubility assay was determined by the -λ max characteristic of each compound. Spectra were analyzed in Femtoscan software. Mass spectrometry was obtained by positive ionization at Bruker AmaZon SL and data analyzed in Compass 1.3.SR2 software.
The solubility assay was performed considering the absorptivity of compounds in ultraviolet spectroscopy as described by Schneider and coworkers. The assay wavelength was determined by the λ max characteristic of each compound.
Saturated aqueous solutions were prepared (0.01 mg/mL) and were kept under stirring for 2 hours at 37°C. The supernatant was filtered in 0,45 µm filters and transferred to a quartz cuvette (10 mm) to spectra acquisition.
Solubility was determined by linear regression using as graph plots, solutions prepared by dilutions of the original solution in methanol. The data were obtained in triplicates and the mean values were used to the graph plots. The correlation coefficient (R^2) values were between 0.9972 and 0.9999.

[2] = test system: NCI-H358M (pulmonary bronchio-alveolar carcinoma); test: In vitro antiproliferative MTT assay, NCI-H358M; type: cell-based
[3] = test system: OVCAR-8 (ovaries adenocarcinoma); test: In vitro antiproliferative MTT assay, OVCAR-8; type: cell-based
Description: (§1) The antiproliferative activity of compounds 5a–r was determined based on an MTT assay and using CA-4 as standard against the tumor cell lines: HL-60 (human leukemia), SF-295 (human glioblastoma), MDA-MB435 (melanoma), PC3M (prostate cancer), OVCAR-8 (ovaries adenocarcinoma), NCI-H258M (pulmonary bronchio-alveolar carcinoma) and HCT-8 (adenocarcinoma ileocecal) (Table 2). To determine the selectivity index of compounds 5a–r, their antiproliferative profile was also evaluated toward human lymphocytes (Table 2).
(§2) Compounds (0.009–5 µg/mL) were tested for cytotoxic activity against selected cancer cell lines: SF-295 (glioblastoma), HCT-8 (colon), MDAMB-435 (melanoma), HL60 (leukemia), PC3M (prostate cancer), OVCAR-8 (ovaries adenocarcinoma) and NCI-H258M (pulmonary bronchio-alveolar carcinoma). All cell lines were kindly obtained from the National Cancer Institute (Bethesda, MD, USA).Tumor cell proliferation was quantified through the ability of living cells to reduce the yellow dye 3-(4,5-dimethyl-2-thiazolyl)-2,5-diphenyl-2H-tetrazolium bromide (MTT, Sigma Aldrich)) to a purple formazan product and absorbance was measured at 595 nm (DTX-880, Beckman Coulter).

HL-60 (human leukemia) = test: In vitro antiproliferative MTT assay, HL-60; type: cell-based
Description: as §1, §2

MDA-MB435 (melanoma) = test: In vitro antiproliferative MTT assay, MDA-MB435; type: cell-based; settings: Homo sapiens, MDA-MB-435; Table 2; MTT
PC3M (prostate cancer) = test: In vitro antiproliferative MTT assay, PC3M; type: cell-based
Description: as §1, §2

tubulin = test: Tubulin polymerization assay (CEREP); type: biochemical; settings: single concentration C = 30 µM; vinblastine as positive control
Description: The tubulin polymerization assay was performed by CEREP® employing a single concentration of 5b (C = 30 µM), using vinblastine as positive control. In this assay, LASSBio-1586 (5b) inhibited 91% of the tubulin polymerization, validating the rational design employed in the molecular design of the derivatives 5a–r (data not shown; available in the supplementary information, Figure S1).
The tubulin polymerization assay was performed by CEREP®, as described by Bonne and co-workers.

[4] = test system: HCT-116 (colon carcinoma); test: Hollow Fiber Assay (HFA), HCT-116 fibers s.c. in mice; type: in vivo, BALB/c nude mice; settings: 4 days; for Proliferation (OD595 nm) HCT-116: mean ± S.E.M.
Description: Cell culture of SF-295 (glioblastoma) and HCT-116 (colon carcinoma) was performed in RPMI 1640 medium supplemented with 10% fetal bovine serum, 2 mM glutamine, at 37°C with 5% CO2.
Polyvinylidene fluoride (PVDF) HFs with a 1-mm internal diameter and a molecular weight cutoff point of 500 kDa were used (Spectrum Laboratories, Houston, TX). The fibers were cut into pieces 12–15 cm long, washed 2× with sterile distilled water and kept in sterile conditions.
Before use, under sterile conditions, the fibers were incubated in complete RPMI with 20% fetal bovine serum (FBS) overnight (packaging time). Cell viability was assessed by trypan blue exclusion assay. Then, a cell suspension of 7.0×10^6 cell/mL at 4°C was injected into the fiber, with the ends thereof immediately heat-sealed. The fibers were cut into 2 cm each, transferred to petri plates and incubated in complete RPMI medium for 24 h prior to implantation in mice. Each cell was injected into one fiber of a different color (HCT-116, yellow fibers; SF-295, blue fibers).
Each animal received 2 fibers at s.c. site. All incisions were sealed with a surgical stapler.
Tumor cell proliferation was quantified through the ability of living cells to reduce the yellow dye 3-(4,5-dimethyl-2-thiazolyl)-2,5-diphenyl-2H-tetrazolium bromide (MTT, Sigma Aldrich) to a purple formazan product. For this purpose, the fibers removed from animals were incubated with MTT 1 mg/mL in 6-well plates during 4 h at 37°C, 5% CO2 and 95% humidity. The MTT solution was aspirated; fibers were washed with saline solution containing protamine sulphate 2.5% and incubated in protamine solution overnight at 4°C. Fibers were transferred to 24 well plates, cut into 2 or 3 pieces and put to dry. The formazan was dissolved in […] of DMSO, aliquots (150 uL) were transferred to 96 well plates and absorbance was measured at 595 nm (DTX-880, Beckman Coulter).

[5] = test system: SF-295 (human glioblastoma); test: In vitro antiproliferative MTT assay, SF-295; type: cell-based
Description: as §1, §2

human lymphocytes = test: In vitro antiproliferative assay, human lymphocytes; type: cell-based; settings: Lymphocyte, Table 2
Description: as §1
To investigate the selective cytotoxic activity of the N-acylhydrazones derivatives (5a–r), their antiproliferative potency was also assessed toward human lymphocytes and the results were compared to the data from CA-4 ([…]). The selectivity index (SI), which was the IC50 for human lymphocytes/IC50 for cancer cell lines after treatment with CA-4 and N-acylhydrazones (5a–r), was calculated, as depicted in Table 3. […] The best comparative selectivity indices (CA-4 vs 5b) were obtained from the SF-295 (SI = 13), MDA-MB435 (SI = 42) and NCI-H258M (SI = 9.5) tumor cell lines, and the worst results were found for OVCAR-8 (SI = 0.5).

[6] = IC50 for human lymphocytes/IC50 for cancer cell line
[7] = SI of 5b relative to SI of CA-4

**Q.** Which solubility at 2 h [1] does the source give for `COc1cc(C(=O)N/N=C/c2ccccc2)cc(OC)c1OC` [Compound 5b, (E)-N′benzylidene-3,4,5-trimetoxybenzohydrazide] here?
**A.** Its solubility at 2 h is 39.5 µg/mL (≈ 126 µM).

**Q.** What about the “SI Lymphocyte/ NCI-H358M” value [2, 6] of the same compound?
**A.** The value was 4.05±0.25.

**Q.** And the IC50 ([2]; NCI-H358M, Table 2, MTT)?
**A.** The IC50 was 0.35 µM.

**Q.** And the “comparative selectivity index (CA-4 vs 5b) NCI-H258M” value [2, 7]?
**A.** Its value is 9.5.

**Q.** And the IC50 ([3]; Homo sapiens, OVCAR-8, Table 2, MTT)?
**A.** Its IC50 is 0.29 µM.

**Q.** What about the “SI Lymphocyte/ OVCAR-8” value [3, 6] of the same compound?
**A.** Its value is 4.39±0.21.

**Q.** What about the “comparative selectivity index (CA-4 vs 5b) OVCAR-8” value [3, 7] of the same compound?
**A.** Its value is 0.5.

**Q.** And the IC50 (HL-60 (human leukemia); Homo sapiens, HL-60, Table 2, MTT)?
**A.** The IC50 was 0.29 µM.

**Q.** And the “SI Lymphocyte/ HL-60” value (HL-60 (human leukemia); [6])?
**A.** Its value is 4.11±0.39.

**Q.** And the IC50 (MDA-MB435 (melanoma))?
**A.** Its IC50 is 0.064 µM.

**Q.** And the IC50 (PC3M (prostate cancer); Homo sapiens, PC-3M, Table 2, MTT)?
**A.** The IC50 was 0.8 µM.

**Q.** And the “SI Lymphocyte/ PC3M” value (PC3M (prostate cancer); [6])?
**A.** The value was 1.60±0.10.

**Q.** What about the “inhibition of tubulin polymerization” value (tubulin) of the same compound?
**A.** The value was 91%.

**Q.** What about the “Inhibition (%) HCT-116” value ([4]; 25 mg/kg/day intraperitoneally) of the same compound?
**A.** Its value is 82.89%.

**Q.** What about the “Proliferation (OD595 nm) HCT-116” value ([4]; 25 mg/kg/day intraperitoneally) of the same compound?
**A.** Its value is 0.26±0.04 OD595 nm.

**Q.** What about the “Inhibition (%) HCT-116” value ([4]; 50 mg/kg/day intraperitoneally) of the same compound?
**A.** Its value is 80.76%.

**Q.** What about the “Proliferation (OD595 nm) HCT-116” value ([4]; 50 mg/kg/day intraperitoneally) of the same compound?
**A.** Its value is 0.29±0.05 OD595 nm.

**Q.** And the IC50 ([5]; Homo sapiens, SF-295, Table 2, MTT, read-out: IC50 SF295)?
**A.** Its IC50 is 0.26 µM.

**Q.** And the “SI Lymphocyte/ SF-295” value [5, 6]?
**A.** Its value is 4.88±0.42.

**Q.** What about the “comparative selectivity index (CA-4 vs 5b) SF-295” value [5, 7] of the same compound?
**A.** The value was 13.

**Q.** What about the IC50 (human lymphocytes) of the same compound?
**A.** The IC50 was 1.34 µM.
